# How the values were obtained:
# [1] = target: T1, peak hNav1.5 (Homo sapiens, UniProt Q14524); test: Automated patch clamp, peak hNav1.5 current block; format: cell-based
# T1 construct: expressed in transfected cells; host or cells: HEK293 or CHO, depending on site
# Method: Peak current was measured during the depolarizing step to −15 mV. Leak current was measured after applying a saturating concentration of a blocker such as lidocaine (2 mM) at the end of each experiment to completely block hNav1.5 current.
# Concentration-response relationships for each test article were independently investigated, i.e., each cell received only one test article, typically evaluating multiple concentrations in a cumulative fashion (lowest to highest concentrations). However, some platforms tested only one concentration per well. Each concentration response was based on a minimum of four concentrations, with a minimum of three wells used for each concentration. In cases of high variability, more cells per concentration were recorded. Prior to drug addition, cells received an addition of vehicle to measure non-test article-related effects such as addition artifacts. At the end of the experiment, a supramaximal concentration of a known inhibitory reference compound was applied to assess leak current and appropriate responsiveness of the test system.
# (§1) The steady state current at each concentration was used to determine the concentration-response relationships. Mean concentration-response data were fitted to a standard sigmoidal four-parameter logistic equation (GraphPad Prism 7; GraphPad Inc., La Jolla, CA) of the form: Y=Bottom+(Top−Bottom)/(1+10^∧(LogIC50−X)∗HillSlope) where Y is the current inhibition (in % of pre-drug control), X is the logarithm of drug concentration, and IC50 is the drug concentration producing half-maximal current inhibition. Curve fitting was performed using the following constraints: Top = 100%, Bottom = 0%, Hill Slope <2. No curve fitting was performed in cases with an obvious lack of a concentration-dependent current inhibition and/or small effect size (approximately ≤20%).
# [2] = target: hERG (Homo sapiens, UniProt Q12809); test: Automated patch clamp, hERG current block, Milnes protocol (site s06); format: cell-based; parameters: expressed in transfected cells; host or cells: HEK293 or CHO, depending on site (site s06, Milnes protocol: HEK293); details: s06_p4, HEK293, 22–24 °C
# hERG, sequence (Q12809 whole entry): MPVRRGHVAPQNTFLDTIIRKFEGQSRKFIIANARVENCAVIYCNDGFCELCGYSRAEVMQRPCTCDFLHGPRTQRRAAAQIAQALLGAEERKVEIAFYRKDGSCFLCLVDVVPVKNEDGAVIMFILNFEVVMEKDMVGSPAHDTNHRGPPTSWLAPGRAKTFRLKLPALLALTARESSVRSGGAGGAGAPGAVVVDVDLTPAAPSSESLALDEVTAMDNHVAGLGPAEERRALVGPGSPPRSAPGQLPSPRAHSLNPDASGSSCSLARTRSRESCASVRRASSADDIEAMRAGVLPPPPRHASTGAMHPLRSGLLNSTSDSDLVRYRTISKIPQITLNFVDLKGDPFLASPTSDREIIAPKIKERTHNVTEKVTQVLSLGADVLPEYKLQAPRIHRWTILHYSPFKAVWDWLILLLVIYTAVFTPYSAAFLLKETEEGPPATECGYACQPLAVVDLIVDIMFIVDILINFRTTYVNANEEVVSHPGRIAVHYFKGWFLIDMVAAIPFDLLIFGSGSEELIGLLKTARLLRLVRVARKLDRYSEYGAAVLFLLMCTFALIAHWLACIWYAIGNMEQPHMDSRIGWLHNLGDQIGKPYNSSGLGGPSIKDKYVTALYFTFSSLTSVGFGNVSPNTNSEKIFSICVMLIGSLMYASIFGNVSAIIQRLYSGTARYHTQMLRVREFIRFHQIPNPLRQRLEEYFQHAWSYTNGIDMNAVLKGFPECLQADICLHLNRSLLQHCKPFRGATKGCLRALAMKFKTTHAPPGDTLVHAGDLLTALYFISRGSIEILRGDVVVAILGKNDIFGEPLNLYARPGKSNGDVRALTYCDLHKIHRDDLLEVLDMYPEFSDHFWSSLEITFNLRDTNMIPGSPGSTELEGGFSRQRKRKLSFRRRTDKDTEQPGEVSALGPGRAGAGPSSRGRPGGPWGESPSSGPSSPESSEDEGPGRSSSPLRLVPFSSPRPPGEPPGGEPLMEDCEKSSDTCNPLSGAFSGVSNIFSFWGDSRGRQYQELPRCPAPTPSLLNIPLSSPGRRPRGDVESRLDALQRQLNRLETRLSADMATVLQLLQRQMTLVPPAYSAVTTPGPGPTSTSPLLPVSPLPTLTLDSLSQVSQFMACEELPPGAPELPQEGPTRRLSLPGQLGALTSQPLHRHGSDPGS
# From the text: Thus, a single test site (s06) elicited hERG current with a 10-s depolarizing voltage step from −80 mV to 0 mV every 25 s (Milnes protocol, see Milnes et al.[14]).
# as §1
# This protocol consists of a set of two 25-s-long pulse protocols, with one protocol (“Pulse”) containing a prolonged 10-s-long depolarizing test pulse (0 mV) followed by a 14-s-long return pulse to −80 mV, and a second protocol “No-Pulse” consisting of the same pulse structure without the depolarizing test pulse[18].
# [3] = based on CiPA evaluations; cited from earlier work
# [4] = target: hCav1.2 (Homo sapiens, UniProt Q13936); test: Automated patch clamp, hCav1.2 current block; details: for IC50: log IC50, half-maximal inhibitory concentration
# hCav1.2, sequence (Q13936 whole entry): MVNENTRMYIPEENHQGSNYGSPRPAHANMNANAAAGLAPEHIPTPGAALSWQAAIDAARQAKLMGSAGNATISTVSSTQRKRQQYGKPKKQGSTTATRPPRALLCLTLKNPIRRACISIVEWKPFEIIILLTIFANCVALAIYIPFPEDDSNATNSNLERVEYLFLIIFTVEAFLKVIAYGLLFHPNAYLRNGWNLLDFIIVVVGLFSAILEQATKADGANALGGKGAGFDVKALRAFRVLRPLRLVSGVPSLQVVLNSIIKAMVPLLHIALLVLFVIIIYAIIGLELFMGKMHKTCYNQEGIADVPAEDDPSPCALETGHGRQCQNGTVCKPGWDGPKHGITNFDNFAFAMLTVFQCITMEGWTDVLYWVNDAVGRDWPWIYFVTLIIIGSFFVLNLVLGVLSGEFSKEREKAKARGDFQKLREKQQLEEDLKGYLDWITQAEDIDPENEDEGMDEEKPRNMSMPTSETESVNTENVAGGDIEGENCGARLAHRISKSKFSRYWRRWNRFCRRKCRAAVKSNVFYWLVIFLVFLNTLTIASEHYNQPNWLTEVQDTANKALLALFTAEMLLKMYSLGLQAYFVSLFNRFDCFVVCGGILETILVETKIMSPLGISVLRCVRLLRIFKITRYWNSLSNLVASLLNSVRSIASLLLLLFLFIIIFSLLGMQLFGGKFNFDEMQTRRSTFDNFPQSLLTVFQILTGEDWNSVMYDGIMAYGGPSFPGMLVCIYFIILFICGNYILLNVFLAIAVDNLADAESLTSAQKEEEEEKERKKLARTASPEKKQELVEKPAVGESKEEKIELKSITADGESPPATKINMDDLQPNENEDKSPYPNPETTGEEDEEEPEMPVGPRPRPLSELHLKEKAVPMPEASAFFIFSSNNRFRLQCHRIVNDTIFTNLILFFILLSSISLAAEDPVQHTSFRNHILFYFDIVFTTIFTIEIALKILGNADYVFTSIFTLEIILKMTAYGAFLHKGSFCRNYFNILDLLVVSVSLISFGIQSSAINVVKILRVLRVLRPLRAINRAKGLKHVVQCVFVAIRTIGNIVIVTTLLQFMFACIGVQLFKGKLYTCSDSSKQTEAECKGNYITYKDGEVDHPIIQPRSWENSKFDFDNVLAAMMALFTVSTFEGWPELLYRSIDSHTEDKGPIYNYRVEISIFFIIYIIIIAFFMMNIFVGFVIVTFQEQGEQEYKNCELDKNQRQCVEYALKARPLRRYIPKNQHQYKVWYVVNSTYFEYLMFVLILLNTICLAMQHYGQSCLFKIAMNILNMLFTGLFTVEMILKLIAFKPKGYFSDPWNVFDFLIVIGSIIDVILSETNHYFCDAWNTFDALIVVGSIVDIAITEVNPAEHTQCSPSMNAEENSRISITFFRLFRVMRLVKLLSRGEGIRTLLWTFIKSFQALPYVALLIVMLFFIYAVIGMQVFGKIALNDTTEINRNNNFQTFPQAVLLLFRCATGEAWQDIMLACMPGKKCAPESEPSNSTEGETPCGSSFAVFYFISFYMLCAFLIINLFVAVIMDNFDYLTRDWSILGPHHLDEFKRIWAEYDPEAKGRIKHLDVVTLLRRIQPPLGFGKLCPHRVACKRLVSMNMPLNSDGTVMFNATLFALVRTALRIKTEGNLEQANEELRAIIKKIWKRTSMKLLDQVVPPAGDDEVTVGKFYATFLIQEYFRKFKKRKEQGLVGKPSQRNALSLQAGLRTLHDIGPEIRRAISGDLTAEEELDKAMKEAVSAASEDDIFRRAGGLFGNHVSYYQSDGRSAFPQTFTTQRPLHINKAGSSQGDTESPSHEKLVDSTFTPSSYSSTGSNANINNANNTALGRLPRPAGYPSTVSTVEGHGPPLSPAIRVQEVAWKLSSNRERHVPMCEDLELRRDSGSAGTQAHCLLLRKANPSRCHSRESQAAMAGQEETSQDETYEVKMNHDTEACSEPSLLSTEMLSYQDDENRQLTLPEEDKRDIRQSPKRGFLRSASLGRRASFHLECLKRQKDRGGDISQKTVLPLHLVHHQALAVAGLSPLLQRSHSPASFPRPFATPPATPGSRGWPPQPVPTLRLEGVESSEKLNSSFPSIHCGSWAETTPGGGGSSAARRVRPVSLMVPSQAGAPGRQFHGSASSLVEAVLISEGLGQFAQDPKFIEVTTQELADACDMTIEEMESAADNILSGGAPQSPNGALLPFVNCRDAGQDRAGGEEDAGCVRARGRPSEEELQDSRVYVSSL
# hCav1.2, sequence (Q08289 whole entry partner): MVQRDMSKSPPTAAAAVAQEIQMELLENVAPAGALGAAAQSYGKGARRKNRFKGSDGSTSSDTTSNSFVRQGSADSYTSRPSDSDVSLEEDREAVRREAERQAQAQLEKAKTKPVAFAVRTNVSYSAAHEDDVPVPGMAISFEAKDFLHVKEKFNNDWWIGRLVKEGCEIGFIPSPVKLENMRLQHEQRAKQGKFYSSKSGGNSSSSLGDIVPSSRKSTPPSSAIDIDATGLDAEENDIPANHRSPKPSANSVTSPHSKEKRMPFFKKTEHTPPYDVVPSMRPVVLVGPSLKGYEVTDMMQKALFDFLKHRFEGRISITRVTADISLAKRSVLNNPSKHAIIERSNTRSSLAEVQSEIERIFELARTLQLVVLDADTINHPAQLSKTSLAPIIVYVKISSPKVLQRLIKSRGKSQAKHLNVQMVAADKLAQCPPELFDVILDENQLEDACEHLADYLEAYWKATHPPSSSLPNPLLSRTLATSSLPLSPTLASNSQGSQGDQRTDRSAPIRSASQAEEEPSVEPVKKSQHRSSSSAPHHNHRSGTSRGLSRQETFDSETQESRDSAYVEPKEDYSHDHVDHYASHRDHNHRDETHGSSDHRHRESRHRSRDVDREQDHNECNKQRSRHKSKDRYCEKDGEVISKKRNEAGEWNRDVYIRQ
# hCav1.2, sequence (P54289 25-956 partner limits assumed): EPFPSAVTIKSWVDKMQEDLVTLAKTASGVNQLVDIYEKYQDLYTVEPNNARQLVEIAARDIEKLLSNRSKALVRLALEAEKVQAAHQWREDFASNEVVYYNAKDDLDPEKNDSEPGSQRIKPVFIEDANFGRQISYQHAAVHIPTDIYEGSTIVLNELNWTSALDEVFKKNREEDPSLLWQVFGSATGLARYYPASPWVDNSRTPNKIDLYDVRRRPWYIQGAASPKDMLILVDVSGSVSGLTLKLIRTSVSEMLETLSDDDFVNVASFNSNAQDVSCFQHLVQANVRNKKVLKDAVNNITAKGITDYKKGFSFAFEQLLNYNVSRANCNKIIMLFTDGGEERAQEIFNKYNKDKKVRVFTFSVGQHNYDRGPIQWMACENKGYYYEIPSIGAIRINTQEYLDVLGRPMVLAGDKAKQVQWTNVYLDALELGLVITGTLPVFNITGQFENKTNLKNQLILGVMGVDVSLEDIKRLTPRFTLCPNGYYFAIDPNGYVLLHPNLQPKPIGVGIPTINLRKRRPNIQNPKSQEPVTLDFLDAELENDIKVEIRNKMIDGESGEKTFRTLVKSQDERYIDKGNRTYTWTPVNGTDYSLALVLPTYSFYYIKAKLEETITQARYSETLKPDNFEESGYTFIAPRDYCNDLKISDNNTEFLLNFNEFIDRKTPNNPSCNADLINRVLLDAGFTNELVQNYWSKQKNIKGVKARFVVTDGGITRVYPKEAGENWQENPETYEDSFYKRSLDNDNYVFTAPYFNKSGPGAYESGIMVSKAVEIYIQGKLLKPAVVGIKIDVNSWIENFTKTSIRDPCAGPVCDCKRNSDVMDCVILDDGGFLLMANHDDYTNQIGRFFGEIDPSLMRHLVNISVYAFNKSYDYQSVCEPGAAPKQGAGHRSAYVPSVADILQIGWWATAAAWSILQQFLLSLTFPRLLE
# hCav1.2, sequence (P54289 957-1103 partner limits assumed): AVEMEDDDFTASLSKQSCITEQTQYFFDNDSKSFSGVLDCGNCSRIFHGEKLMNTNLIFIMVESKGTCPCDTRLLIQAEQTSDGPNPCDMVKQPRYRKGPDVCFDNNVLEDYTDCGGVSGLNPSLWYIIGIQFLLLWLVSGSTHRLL
compound,measurement,setting,value
"Cc1nccn1CC1CCc2c(c3ccccc3n2C)C1=O (centres unmarked) [ond, ondansetron]","Peak hNav1.5 Na+ current inhibition, Mean","[1]; site_platform s02_p2, 1.00E-05 mol/L",9.4%
same,"Peak hNav1.5 Na+ current inhibition, Mean","[1]; site_platform s02_p2, 3.00E-07 mol/L",1.4%
same,"log IC50, peak hNav1.5 Na+ current inhibition",[1]; site_platform s04_p3,no inh.
same,"Peak hNav1.5 Na+ current inhibition, Mean","[1]; site_platform s04_p3, 1.00E-05 mol/L",19.5%
same,"Peak hNav1.5 Na+ current inhibition, Mean","[1]; site_platform s04_p3, 3.00E-07 mol/L",4.4%
same,"log IC50, peak hNav1.5 Na+ current inhibition",[1]; site_platform s06_p4,no inh.
same,"Peak hNav1.5 Na+ current inhibition, Mean","[1]; site_platform s06_p4, 1.00E-05 mol/L",19.0%
same,"Peak hNav1.5 Na+ current inhibition, Mean","[1]; site_platform s06_p4, 3.00E-07 mol/L",0.4%
same,"log IC50, peak hNav1.5 Na+ current inhibition",[1]; site_platform s07_p6,no inh.
same,"Peak hNav1.5 Na+ current inhibition, Mean","[1]; site_platform s07_p6, 1.00E-05 mol/L",17.1%
same,"Peak hNav1.5 Na+ current inhibition, Mean","[1]; site_platform s07_p6, 3.00E-07 mol/L",1.7%
same,"log IC50, peak hNav1.5 inhibition",[1]; site_platform s10_p3,no inh.
same,"Peak hNav1.5 Na+ current inhibition, Mean","[1]; site_platform s10_p3, 1.00E-05 mol/L",20.6%
same,"Peak hNav1.5 Na+ current inhibition, Mean","[1]; site_platform s10_p3, 3.00E-07 mol/L",0.1%
same,"log IC50, peak hNav1.5 inhibition",[1]; site_platform s11_p1,no inh.
same,"Peak hNav1.5 Na+ current inhibition, Mean","[1]; site_platform s11_p1, 1.00E-05 mol/L",15.2%
same,"Peak hNav1.5 Na+ current inhibition, Mean","[1]; site_platform s11_p1, 3.00E-07 mol/L",6.1%
same,"log IC50, peak hNav1.5 inhibition",[1]; site_platform s12_p2,no inh.
same,"Peak hNav1.5 Na+ current inhibition, Mean","[1]; site_platform s12_p2, 1.00E-05 mol/L",12.2%
same,"Peak hNav1.5 Na+ current inhibition, Mean","[1]; site_platform s12_p2, 3.00E-07 mol/L",3.0%
same,"log IC50, peak hNav1.5 inhibition",[1]; site_platform s13_p2,no inh.
same,"Peak hNav1.5 Na+ current inhibition, Mean","[1]; site_platform s13_p2, 1.00E-05 mol/L",7.0%
same,"Peak hNav1.5 Na+ current inhibition, Mean","[1]; site_platform s13_p2, 3.00E-07 mol/L",-3.4%
same,"log IC50, peak hNav1.5 inhibition",[1]; site_platform s14_p1,no inh.
same,"Peak hNav1.5 Na+ current inhibition, Mean","[1]; site_platform s14_p1, 1.00E-05 mol/L",21.3%
same,"Peak hNav1.5 Na+ current inhibition, Mean","[1]; site_platform s14_p1, 3.00E-07 mol/L",3.9%
same,"log IC50, peak hNav1.5 inhibition",[1]; site_platform s15_p1,no inh.
same,"Peak hNav1.5 Na+ current inhibition, Mean","[1]; site_platform s15_p1, 1.00E-05 mol/L",43.9%
same,"Peak hNav1.5 Na+ current inhibition, Mean","[1]; site_platform s15_p1, 3.00E-07 mol/L",11.8%
same,"log IC50, peak hNav1.5 inhibition",[1]; site_platform s16_p3,no inh.
same,"Peak hNav1.5 Na+ current inhibition, Mean","[1]; site_platform s16_p3, 1.00E-05 mol/L",14.4%
same,"Peak hNav1.5 Na+ current inhibition, Mean","[1]; site_platform s16_p3, 3.00E-07 mol/L",2.8%
same,"log IC50, peak hNav1.5 inhibition",[1]; site_platform s17_p1,no inh.
same,"Peak hNav1.5 Na+ current inhibition, Mean","[1]; site_platform s17_p1, 1.00E-05 mol/L",33.4%
same,"Peak hNav1.5 Na+ current inhibition, Mean","[1]; site_platform s17_p1, 3.00E-07 mol/L",-17.0%
same,"log IC50, peak hNav1.5 inhibition",[1]; site_platform s18_p1,no inh.
same,"Peak hNav1.5 Na+ current inhibition, Mean","[1]; site_platform s18_p1, 1.00E-05 mol/L",29.7%
same,"Peak hNav1.5 Na+ current inhibition, Mean","[1]; site_platform s18_p1, 3.00E-07 mol/L",27.5%
same,"log IC50, peak hNav1.5 inhibition",[1]; site_platform s19_p3,no inh.
same,"Peak hNav1.5 Na+ current inhibition, Mean","[1]; site_platform s19_p3, 1.00E-05 mol/L",24.0%
same,"Peak hNav1.5 Na+ current inhibition, Mean","[1]; site_platform s19_p3, 3.00E-07 mol/L",3.5%
same,"hERG K+ current nH, Hill slope",[2],1.05
same,"hERG K+ current inhibition, Mean, at maximal concentration","[2]; max conc [mol/L]: bep 3.00E-07, cpz 3.00E-06, cis 3.00E-07, dil 1.00E-04, dof 1.00E-07, mex 1.00E-04, ond 1.00E-05, qui 1.00E-05, ran 1.00E-04, sot 3.00E-04, ter 3.00E-07, ver 1.00E-06",95.5%
same,"hERG K+ current inhibition, Mean, at minimal concentration","[2]; min conc [mol/L]: bep 1.00E-08, cpz 1.00E-07, cis 1.00E-09, dil 3.00E-06, dof 1.00E-09, mex 1.00E-06, ond 3.00E-07, qui 1.00E-07, ran 3.00E-06, sot 1.00E-05, ter 1.00E-08, ver 3.00E-08",25.3%
same,TdP Risk Category,[3],Intermediate
same,IC50,[4]; site s04_p3,155 µM
same,IC50,[4]; site s14_p1,28.8 µM
same,IC50,[4]; site s16_p3,6.61 µM
same,"log IC50, half-maximal inhibitory concentration",[4]; site s01_p1,no inh.
same,"Peak hCav1.2 Ca2+ current inhibition, Mean","[4]; site s01_p1, 3.00E-07 mol/L",3.2%
same,"log IC50, half-maximal inhibitory concentration","[4]; site s02_p2, corrected for rundown",no inh.
same,"Peak hCav1.2 Ca2+ current inhibition, Mean","[4]; site s02_p2, corrected for rundown, 3.00E-07 mol/L",-6.3%
same,"nH, Hill slope",[4]; site s04_p3,0.60
same,"Peak hCav1.2 Ca2+ current inhibition, Mean","[4]; site s04_p3, 1.00E-05 mol/L",16.1%
same,"Peak hCav1.2 Ca2+ current inhibition, Mean","[4]; site s04_p3, 3.00E-07 mol/L",2.6%
same,"log IC50, half-maximal inhibitory concentration",[4]; site s06_p4,no inh.
same,"Peak hCav1.2 Ca2+ current inhibition, Mean","[4]; site s06_p4, 3.00E-07 mol/L",18.9%
same,"log IC50, half-maximal inhibitory concentration",[4]; site s11_p1,no inh.
same,"Peak hCav1.2 Ca2+ current inhibition, Mean","[4]; site s11_p1, 3.00E-07 mol/L",19.7%
same,"nH, Hill slope",[4]; site s14_p1,2.00
same,"Peak hCav1.2 Ca2+ current inhibition, Mean","[4]; site s14_p1, 3.00E-07 mol/L",4.0%
same,"nH, Hill slope",[4]; site s16_p3,0.42
same,"Peak hCav1.2 Ca2+ current inhibition, Mean","[4]; site s16_p3, 3.00E-07 mol/L",20.6%
same,"log IC50, half-maximal inhibitory concentration",[4]; site s18_p1,no inh.
same,"Peak hCav1.2 Ca2+ current inhibition, Mean","[4]; site s18_p1, 3.00E-07 mol/L",16.9%
